Laboratory results reported in US20210284618A1, “FURANOCHALCONES AS INHIBITORS OF CYP1A1, CYP1A2 AND CYP1B1 FOR CANCER CHEMOPREVENTION” (Council of Scientific & Industrial Research, priority 2016, published 2021).

Key:
[1] = biological target: T1, CYP1A1 (Homo sapiens, UniProt P04798); assay: In-vitro CYP450 1A1 enzyme inhibition in Saccharosomes; type: biochemical; conditions: human, Saccharosomes containing CYP1A1, pH 7.4, probe ethoxyresorufin (5 μM), % inhibition of CYP1A1 in Saccharosomes at 10 μM, 10 μM test compound, 5 μM ethoxyresorufin
T1 construct: host or cells: yeast microsomes (Saccharosomes)
T1 sequence (P04798 1-512): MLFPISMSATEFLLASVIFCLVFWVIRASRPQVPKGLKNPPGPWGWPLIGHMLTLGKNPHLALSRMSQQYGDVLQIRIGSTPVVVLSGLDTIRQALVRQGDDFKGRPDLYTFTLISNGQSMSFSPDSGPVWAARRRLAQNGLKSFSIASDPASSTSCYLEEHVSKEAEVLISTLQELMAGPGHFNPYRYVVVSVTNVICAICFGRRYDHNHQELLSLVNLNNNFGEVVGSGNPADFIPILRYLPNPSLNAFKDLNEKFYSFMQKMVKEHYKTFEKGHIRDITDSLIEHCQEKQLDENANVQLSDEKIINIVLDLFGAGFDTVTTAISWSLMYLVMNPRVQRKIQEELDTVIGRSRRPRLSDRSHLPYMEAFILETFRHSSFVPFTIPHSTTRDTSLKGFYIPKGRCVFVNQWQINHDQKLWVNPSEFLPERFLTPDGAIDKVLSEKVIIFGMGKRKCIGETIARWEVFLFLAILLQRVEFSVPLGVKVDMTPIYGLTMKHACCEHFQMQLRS
Protocol: Example 23. In-vitro CYP450 1A1 enzyme inhibition in Saccharosomes™: The screening method utilizes 384-well microplates to rapidly ascertain relative percentage inhibition of CYP1A1 by a library of compounds. Each reaction was performed in black, clear-bottomed 384-well microplates. A reaction volume of 50 μl comprised of 0.5 pmol of the cytochrome P450 CYP1A1 (Saccharosomes), 5 μM of ethoxyresorufin substrate (which contributes 0.05% DMSO to the well), 10 μM of potential inhibitor test article (which contributes 0.5% DMSO to the well), A P450 reductase NADPH regenerating system (1.3 mM NADP+, 3.3 mM glucose-6-0.02 units phosphate and glucose-6-Phosphate dehydrogenase), potassium phosphate buffer (final well concentration 100 mM, pH 7.4) and water. Very small quantities of magnesium chloride and sodium citrate are added to the NADPH regenerating system, in line with standard published protocols. The potential inhibitor (test article) was pre-incubated with CYP1A1 of at least 20 minutes at 30° C. After this period, the remainder of the reagents required in the assay was added to initiate the process. The reaction mixture was incubated for another 20 minutes at 30° C. The reaction was stopped by adding an 80% acetonitrile, 20% 0.5 M Tris solution. The reactions were monitored using the Biotek Synergy HT plate reader by measuring the endpoint reaction at Excitation 530/(25 bandwidth) & Emission 590/(20 bandwidth) using a gain/sensitivity setting of 60. The mean of the quadruplicates of the negative control (solvent inactivated CYP1A1) was deducted from the mean of potential inhibitor (test article) samples. The percentage was then derived relative to the mean of the wells without inhibitor.
(§1) Example 25. IC50 determination for best compound against CYP1A1, CYP1B1 and other CYPs in Saccharosomes. Compounds were serially diluted to six different concentrations with 10% DMSO in a Sero-Well white microplate. The experiment was performed in a similar way as described above in examples 23 and 24.

[2] = biological target: T1, CYP1A1; assay: CYP1A1 inhibition in HEK293 cells transfected with pcDNA3.1/CYP1A1 (live cells); type: cell-based; conditions: for inhibition at 10 μM: human, HEK293 cells transfected with pcDNA3.1/CYP1A1 (live cells), probe EROD (5 μM), % inhibition of CYP1A1 in HEK293 cells at 10 μM, 5 μM EROD
Protocol: Example 26. In-vitro CYP450 inhibition in HEK293 cells transfected with pcDNA3.1/CYP1A1 against 5 μM EROD. […] The HEK293 cells used here was procured from ‘European Collection of Authenticated Cell Cultures’ (catalog number. ECACC 85120602).

[3] = biological target: T2, CYP1B1 (Homo sapiens, UniProt Q16678); assay: CYP1B1 inhibition in live human cells (HEK293); type: cell-based
T2 sequence (Q16678 1-543): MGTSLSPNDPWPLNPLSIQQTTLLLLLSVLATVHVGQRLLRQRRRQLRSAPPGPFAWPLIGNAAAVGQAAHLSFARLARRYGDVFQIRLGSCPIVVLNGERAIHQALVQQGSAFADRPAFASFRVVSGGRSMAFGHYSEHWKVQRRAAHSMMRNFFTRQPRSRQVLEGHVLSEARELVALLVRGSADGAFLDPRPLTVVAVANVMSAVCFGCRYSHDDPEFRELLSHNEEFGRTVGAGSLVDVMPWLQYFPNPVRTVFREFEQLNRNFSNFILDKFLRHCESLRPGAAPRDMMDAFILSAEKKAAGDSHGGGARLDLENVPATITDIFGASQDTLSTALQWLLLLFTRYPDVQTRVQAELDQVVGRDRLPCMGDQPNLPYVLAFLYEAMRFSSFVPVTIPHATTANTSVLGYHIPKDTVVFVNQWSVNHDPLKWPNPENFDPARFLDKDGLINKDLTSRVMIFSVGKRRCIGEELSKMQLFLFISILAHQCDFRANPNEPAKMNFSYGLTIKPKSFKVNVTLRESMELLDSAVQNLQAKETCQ

[4] = biological target: T2, CYP1B1; assay: In-vitro CYP450 1B1 enzyme inhibition in Saccharosomes; type: biochemical; set-up: purchased CYP Design Ltd; host or cells: yeast microsomes (Saccharosomes); conditions: human, Saccharosomes (yeast-derived) with recombinant CYP1B1, probe 7-ethoxyresorufin (5 μl of 0.1 mM), % inhibition of CYP1B1 in Saccharosomes at 10 μM, 10 μM test compound, 7-ethoxyresorufin
Protocol: Example 24. In-vitro CYP450 1B1 enzyme inhibition in Saccharosomes™: Regenerating system consists of: 5 μl Solution A (183 mg of NADP++183 mg of glucose-6-phosphate+654 μl of 1.0 M magnesium chloride solution+9.15 ml of sterile ultra-pure water)+1 μl Solution B (250 Units of glucose-6-phosphate dehydrogenase+6.25 ml of 5 mM sodium citrate; mixed in a tube and made up to 10 ml with sterile ultra-pure water)+39 μl 0.2 M Kpi (0.6 ml of 1.0M K2HPO4+9.4 ml of 1.0 M KH2PO4 were mixed and made up to 50 ml with sterile ultra-pure water)+5 μl potential inhibitory compound.
as §1

| SMILES | inhibition at 20 min, 10 μM [1] [%] | IC50 [2] [nM] | inhibition at 10 μM [2] [%] | IC50 [3] [nM] | inhibition at 10 μM [4] [%] | melting point [°C] |
| --- | --- | --- | --- | --- | --- | --- |
| COc1c(C(=O)/C=C/c2ccc(F)cc2)c(O)c(OC)c2occc12 [Compound 6, 3-(4,7-dimethoxy-6-hydroxybenzofuran-5-yl)-1-(4-fluorophenyl)-3-oxopropene] | > 80 | 480 | 79.6 | 1320 | 49.5 | – |
| CCOc1ccc(Br)cc1/C=C/C(=O)c1c(O)c(OC)c2occc2c1OC [Compound 11, 3-(4,7-dimethoxy-6-hydroxybenzofuran-5-yl)-1-(2-ethoxy,5-bromophenyl)-3-oxopropene] | 64.3 | – | 31.7 | – | – | 260 to 261 |
| COc1c(C(=O)/C=C/c2ccccc2Cl)c(O)c(OC)c2occc12 [Compound 12, 3-(4,7-dimethoxy-6-hydroxybenzofuran-5-yl)-1-(2-chlorophenyl)-3-oxopropene] | 23.6 | – | 19.5 | – | – | 160 to 161 |
| COc1c(C(=O)/C=C/c2c(F)c(F)c(F)c(F)c2F)c(O)c(OC)c2occc12 [Compound 15, 3-(4,7-dimethoxy-6-hydroxybenzofuran-5-yl)-1-(2,3,4,5,6 pentafluorophenyl)-3-oxopropene] | 21.9 | – | 71.6 | – | – | 300 to 301 |
